In patent US5990146A, “Benzimidazoles for inhibiting protein tyrosine kinase mediated cellular proliferation” (Warner-Lambert Company, priority 1998, dated 1999) one finds IC50 data, which are given here for three compounds.

For orientation: IC50 means the midpoint of a concentration-inhibition curve.

Test [1] concerns the target T1, PDGF receptor tyrosine kinase (mouse PDGF-β) (Mus musculus, UniProt P05622).
T1 construct: PCR primers are designed to amplify a fragment of DNA that codes for the intracellular tyrosine kinase domain; made in house; host or cells: Sf9 insect cells (baculovirus), cell lysate
In words: PDGFr tyrosine kinase assay (poly glutamate-tyrosine phosphorylation). In kind it is biochemical. Particulars: Table 1; 10 minutes at 25° C.

In test [2] the target is T2, Human EGF receptor tyrosine kinase (Homo sapiens, UniProt P00533).
T2 construct: Human EGF receptor tyrosine kinase is isolated from A431 human epidermoid carcinoma cells; endogenous in cells; host or cells: A431 human epidermoid carcinoma cells (detergent lysate, fast Q sepharose fractions)
T2 sequence (P00533 25-1210): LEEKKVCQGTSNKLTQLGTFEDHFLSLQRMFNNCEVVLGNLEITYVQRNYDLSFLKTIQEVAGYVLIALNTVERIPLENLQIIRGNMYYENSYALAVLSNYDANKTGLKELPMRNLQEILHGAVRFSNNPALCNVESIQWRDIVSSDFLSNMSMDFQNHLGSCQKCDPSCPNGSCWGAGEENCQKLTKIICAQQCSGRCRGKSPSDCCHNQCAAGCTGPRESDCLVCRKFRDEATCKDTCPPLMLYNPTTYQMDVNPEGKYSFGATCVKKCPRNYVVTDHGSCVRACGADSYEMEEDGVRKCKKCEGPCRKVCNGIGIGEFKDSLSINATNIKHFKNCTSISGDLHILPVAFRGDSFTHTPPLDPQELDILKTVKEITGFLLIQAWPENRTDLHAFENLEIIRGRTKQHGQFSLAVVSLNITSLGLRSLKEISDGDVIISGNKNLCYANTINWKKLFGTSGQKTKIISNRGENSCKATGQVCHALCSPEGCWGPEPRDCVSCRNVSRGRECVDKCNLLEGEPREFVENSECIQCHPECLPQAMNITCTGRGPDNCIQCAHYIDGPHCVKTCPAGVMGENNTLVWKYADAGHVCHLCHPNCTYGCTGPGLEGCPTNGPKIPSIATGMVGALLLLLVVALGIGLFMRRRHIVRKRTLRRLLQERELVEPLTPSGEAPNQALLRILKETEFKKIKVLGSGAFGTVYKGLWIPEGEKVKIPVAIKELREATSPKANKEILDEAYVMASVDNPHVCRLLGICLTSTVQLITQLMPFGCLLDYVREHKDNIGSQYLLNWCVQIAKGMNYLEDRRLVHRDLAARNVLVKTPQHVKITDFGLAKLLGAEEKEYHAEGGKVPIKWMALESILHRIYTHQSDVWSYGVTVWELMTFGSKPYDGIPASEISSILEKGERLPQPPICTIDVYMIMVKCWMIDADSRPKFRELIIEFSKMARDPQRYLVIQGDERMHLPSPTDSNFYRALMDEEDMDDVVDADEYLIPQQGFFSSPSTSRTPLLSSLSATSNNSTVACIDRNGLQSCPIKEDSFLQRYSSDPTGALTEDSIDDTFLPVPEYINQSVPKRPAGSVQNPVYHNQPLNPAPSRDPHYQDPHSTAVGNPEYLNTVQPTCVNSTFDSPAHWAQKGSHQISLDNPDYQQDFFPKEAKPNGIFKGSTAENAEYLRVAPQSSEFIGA
In words: EGFr tyrosine kinase assay. In kind it is biochemical. Particulars: Table 1; 10 μM ATP, 25° C., 10 minutes.

The target in a further test is T3, insulin receptor (INSr) (Homo sapiens, UniProt P06213).
T3 construct: An assay using the intracellular kinase domains of insulin receptor (INSr) is performed
T3 sequence (P06213 1023-1298 limits assumed, species assumed): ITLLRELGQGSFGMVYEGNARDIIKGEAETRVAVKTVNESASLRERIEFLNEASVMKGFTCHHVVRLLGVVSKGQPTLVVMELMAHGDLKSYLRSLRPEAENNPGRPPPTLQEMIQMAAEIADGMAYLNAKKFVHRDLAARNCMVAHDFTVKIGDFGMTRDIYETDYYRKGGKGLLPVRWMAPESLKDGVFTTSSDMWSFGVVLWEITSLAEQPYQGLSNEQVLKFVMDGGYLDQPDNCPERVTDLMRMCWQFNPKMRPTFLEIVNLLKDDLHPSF
In words: Insulin receptor kinase assay. In kind it is biochemical. Particulars: Table 1; as for EGF receptor with 10 mM manganese chloride.

Test [3] has as its system PDGF receptor autophosphorylation in rat aorta smooth muscle cells. In words: PDGF Receptor Autophosphorylation Assay in rat aorta smooth muscle cells. In kind it is cell-based. Particulars: Table 2, PDGF-BB 30 ng/mL, 2 hours pre-incubation, read-out: IC50, inhibition of PDGF-stimulated receptor autophosphorylation.
Method: Rat aorta smooth muscle cells (RASMC) are isolated from the thoracic aorta of rats and explanted according to the method of Ross, J. Cell. […] Cells are grown in Dulbecco's modified Eagle's medium (DMEM, Gibco) containing 10% fetal calf serum (FBS, Hyclone, Logan, Utah), 1% glutamine (Gibco) and 1% penicillin/streptomycin (Gibco). Cells are identified as smooth muscle cells by their "hill and valley" growth pattern and by fluorescent staining with a monoclonal antibody specific for SMC μ-actin (Sigma). RASMC are used between passages 5 and 20 for all experiments. Test compounds are prepared in dimethylsulfoxide (DMSO) in order to achieve consistency in the vehicle and to ensure compound solubility. Appropriate DMSO controls are simultaneously evaluated with the test compounds.
Rat aortic smooth muscle cells are grown to confluencey in 100 mm dishes. Growth medium is removed and replaced with serum-free medium and cells are incubated at 37° C. for an additional 24 hours. Test compounds are then added directly to the medium and cells incubated for an additional 2 hours. After 2 hours PDGF-BB is added at a final concentration of 30 ng/mL for 5 minutes at 37° C. to stimulate autophosphorylation of PDGF receptors. Following growth factor treatment, the medium is removed, and cells are washed with cold phosphate-buffered saline and immediately lysed with 1 mL of lysis buffer (50 mM Hepes, pH 7.5, 150 mM NaCl, 10% glycerol, 1% Triton-X 100, 1 mM EDTA, 1 mM EGTA, 50 mM NaF, 1 mM sodium orthovanadate, 30 mM p-nitrophenyl phosphate, 10 mM sodium pyrophosphate, 1 mM phenylmethyl sulfonyl fluoride, 10 μg/mL aprotinin and 10 μg/mL leupeptin). Lysates are centrifuged at 10,000 ×g for 10 minutes. […] Following the incubation, protein-A-sepharose beads are added for 2 hours with continuous mixing, and immune complexes bound to the beads washed 4 times with 1 mL lysis wash buffer. Immune complexes are solubilized in 40 μL of Laemmli sample buffer and electrophoresed in 8-16% SDS polyacrylamide gels. Following electrophoresis, separated proteins are transferred to nitrocellulose and immunoblotted with a 1:1000 dilution of antiphosphotyrosine monoclonal antibody (UBI clone 4G10; #05-321). Following extensive washing with PBS-0.2% tween-20, the blots are incubated with horseradish peroxidase labeled goat antimouse IgG (1:5000; Bio-Rad Inc, Hercules, Calif.) and protein levels are detected by enhanced chemiluminescence (ECL) detection system according to the instructions of the supplier (Amersham Inc, Arlington Heights, Ill.). The density of the protein bands are determined using NIH Image software (v. 1.56) and IC50 values are generated from the densitometric data.
Test [4] concerns SW-620 cells. In words: Human Colon Carcinoma Growth Delay Assay. Particulars: 72 h, Table 3, SW-620, 3 days. The test is classed as cell-based. How it is done: Human Colon Carcinoma Growth Delay Assay Human colon carcinoma cells are seeded into 96-well tissue culture plates in a final volume of 180 μL of 10% fetal bovine serum containing growth media and allowed to incubate overnight (37° C., 5% CO2, 95% air). Cells of the SW620 cell line are seeded at 1.0-1.5×10^4 cells per well. Cells of the HCT8 and HT29 cell lines are seeded at 2-4×10^3 cells per well. […] At the end of the incubation period, cells are fixed with 100 μL per well of 10% trichloroacetic acid after removing the drug/culture medium. The plates are washed 5 times with tap water and stained with 100 μL per well of 0.075% sulforhodamine B in 1% acetic acid for 10 minutes. The plates are rinsed 4 times and allowed to air dry. The stain in the wells are solubilized by the addition of 10 mM unbuffered Tris base and the absorbance read using a microtiter plate optical reader. Inhibition of cell growth is calculated from absorbance data of the treated cells compared to untreated control cells. Table 3 provides data for inhibition of growth in human adenocarcinoma cell lines.

The subject of test [5] is SW-620 cells. In words: Human Colon Carcinoma Clonogenic Assay. The test is classed as cell-based. How it is done: SW620 cells are seeded at 7×10^5 per well; HCT8 cells are seeded at 5×10^5 per well; HT29 cells are seeded at 4×10^5 cells per well. Serially diluted drugs are prepared at 200 ×the final concentration and 15 μL are added to each of duplicate wells. Cells are incubated with drug for 2 days, rinsed once with 1 mL of trypsin+EDTA, and then trypsinized with the same trypsin solution. […] One milliliter of each of these cell suspensions is added to duplicate wells of 6 well plates previously prepared with 10% serum/growth medium/ 1% agarose plugs. The cells in these plates are incubated for approximately 2 weeks in the incubator and stained with 1 mL per well of 1 mg/mL iodonitrotetrazolium violet stain. The visible colonies are counted with an electronic optical colony counter and the clonogenicity of treated cells calculated in comparison to untreated control cells.

Test [6] concerns the target T4, FGF receptor tyrosine kinase (human FGF-1 (flg)) (Homo sapiens, UniProt P11362).
T4 construct: PCR primers are designed to amplify a fragment of DNA that codes for the intracellular tyrosine kinase domain; made in house; host or cells: Sf9 insect cells (baculovirus), cell lysate
In words: FGFr tyrosine kinase assay (poly glutamate-tyrosine phosphorylation). The test is classed as biochemical. To be noted: Table 1; 10 minutes at 25° C.

Test [7] addresses MAP Kinase Pathway (GST-MEK / GST-MAPK). In words: Cascade Assay for Inhibitors of the MAP Kinase Pathway (APK Assay). In kind it is biochemical. To be noted: Table 1; 50 μM ATP, 20 minutes. How it is done:
Cascade Assay for Inhibitors of the MAP Kinase Pathway (APK Assay) Incorporation of ^32 P into myelin basic protein (MBP) is assayed in the presence of a glutathione S-transferase fusion protein containing p44MAP kinase (GST-MAPK) and a glutathione S-transferase fusion protein containing p45MEK (GST-MEK). […] Reactions are stopped after 20 minutes by addition of trichloroacetic acid and filtered through a GF/C filter mat. ^32 P retained on the filter mat is determined using a 1205 betaplate. […] To ascertain whether compounds are inhibiting GST-MEK or GST MAPK, two additional protocols are employed. In the first protocol, compounds are added to tubes containing GST MEK, followed by addition of GST-MAPK, MBP and [γ^32 P]ATP. In the second protocol, compounds are added to tubes containing both GST-MEK and GST-MAPK, followed by MBP and [γ^32 P]ATP. Compounds that show activity in both protocols are scored as […], while compounds showing activity in only the first protocol are scored as MEK inhibitors.

For the next test, the target named is Protein kinase C (PKC). In words: PKC assay. The test is classed as biochemical. Particulars: Table 1; rat brain preparation.
The target of a further test is T5, c-Src (Homo sapiens, UniProt P12931).
T5 construct: made in house; host or cells: baculovirus infected insect cells
T5 sequence (P12931 whole entry, species assumed): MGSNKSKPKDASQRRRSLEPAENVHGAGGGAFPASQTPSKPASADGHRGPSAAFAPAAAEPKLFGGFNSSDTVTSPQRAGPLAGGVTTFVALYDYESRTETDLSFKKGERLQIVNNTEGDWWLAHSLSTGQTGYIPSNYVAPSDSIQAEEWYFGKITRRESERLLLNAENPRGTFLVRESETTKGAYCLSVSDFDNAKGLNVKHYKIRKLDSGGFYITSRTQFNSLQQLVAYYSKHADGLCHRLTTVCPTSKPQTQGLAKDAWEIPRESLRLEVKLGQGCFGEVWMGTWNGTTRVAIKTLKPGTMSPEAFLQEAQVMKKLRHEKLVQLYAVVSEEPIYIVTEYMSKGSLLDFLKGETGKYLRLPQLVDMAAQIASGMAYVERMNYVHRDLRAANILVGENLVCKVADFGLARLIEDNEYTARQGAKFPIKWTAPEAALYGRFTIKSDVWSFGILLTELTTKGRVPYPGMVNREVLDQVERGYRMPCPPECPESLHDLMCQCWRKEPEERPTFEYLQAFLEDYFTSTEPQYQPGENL
The experiment in a line: c-Src kinase assay. The test is classed as biochemical. Particulars: Table 1; 5 μM ATP, room temperature, 10 minutes.

Setting [8] is: Table 3, SW-620, 2 days drug exposure, approximately 2 weeks colony growth, read-out: SW-620 Clonogenic IC50.

Where a name gives a salt, the structure may show the parent alone. Bounds are passed on as bounds.

T1 sequence (P05622 599-961 limits assumed): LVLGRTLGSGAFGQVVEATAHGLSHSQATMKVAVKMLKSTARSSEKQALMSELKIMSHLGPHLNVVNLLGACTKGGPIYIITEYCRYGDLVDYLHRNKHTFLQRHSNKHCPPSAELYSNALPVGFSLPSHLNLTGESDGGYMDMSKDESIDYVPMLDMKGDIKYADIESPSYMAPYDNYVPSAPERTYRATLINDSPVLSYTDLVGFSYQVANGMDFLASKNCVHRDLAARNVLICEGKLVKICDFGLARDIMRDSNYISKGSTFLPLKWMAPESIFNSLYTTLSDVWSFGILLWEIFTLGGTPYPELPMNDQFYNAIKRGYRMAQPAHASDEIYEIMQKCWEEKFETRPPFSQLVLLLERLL
T4 sequence (P11362 478-767 limits assumed): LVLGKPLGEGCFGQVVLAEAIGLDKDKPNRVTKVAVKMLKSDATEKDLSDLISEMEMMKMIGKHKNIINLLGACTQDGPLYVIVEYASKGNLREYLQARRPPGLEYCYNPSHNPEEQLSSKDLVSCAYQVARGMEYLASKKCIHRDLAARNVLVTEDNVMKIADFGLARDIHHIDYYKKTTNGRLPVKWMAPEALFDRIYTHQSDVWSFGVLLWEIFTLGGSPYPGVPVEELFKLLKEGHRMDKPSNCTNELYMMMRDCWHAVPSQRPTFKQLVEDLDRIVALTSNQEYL
Method for Protein kinase C (PKC): Protein kinase C (PKC) is obtained as a rat brain preparation from Promega.
The PKC assay is performed as previously described by Martiny-Baron, et al., J. Biol. Chem. 268: 9194-9197 (1993).

For `Oc1cccc2c1ncn2-c1ccccc1` [Example 11, 4-Hydroxy-1-phenylbenzimidazole Hydrochloride], the IC50 in [1] is 10.6 µM; in test [2], above 50 µM; against insulin receptor (INSr), above 50 µM; in [3], above 10 µM; in the test on SW-620 cells [4], above 25 µM; with SW-620 cells [5] (SW-620, read-out: SW-620 Clonogenic IC50) it was above 5 µM. Further, in the test on SW-620 cells [5] (setting [8]), the 50% inhibitory concentration (IC50) was found to be 2.1 µM.

On to `COc1ccc2c(c1)ncn2-c1ccccc1` [Example 13, 5-Methoxy-1-phenylbenzimidazole Hydrochloride], for which the concentration for half-maximal inhibition (IC50) was 0.4 µM in [1]; 22 µM in test [6]; below 50 µM in test [2]; above 50 µM against insulin receptor (INSr); 5 µM in test [7]; above 50 µM against Protein kinase C (PKC). Besides, the figures for the half-maximal inhibitory concentration (IC50) (in [3]; in the test with SW-620 cells [4]; in the test with SW-620 cells [5] (setting [8])) were 2 µM, above 25 µM and above 5 µM, respectively.

Turning to `c1ccc(-n2cnc3cc(OCCCCN4CCOCC4)ccc32)cc1` [Example 59, 5-[4-(4-Morpholino)butoxy]-1]phenylbenzimidazole Dihydrochloride], the IC50 in test [1] is 0.3 µM; in [6] it was 12 µM; against c-Src, 25 µM; in test [3], 2.2 µM; in the test on SW-620 cells [4] it was above 25 µM; with SW-620 cells [5] (setting [8]), above 25 µM.
